Assay results reported in patent US10576101B2, “Roneparstat combined therapy of multiple myeloma” (Leadiant Biosciences SA, priority 2015, dated 2020).
Read-outs that look alike come from different tables or passages of the source.

Key:
[1] = tested on: nonclinical tumor models, including multiple myeloma; settings: cited from earlier work
[2] = tested on: a variety of cancer cell types; settings: cited from earlier work
CAG HPSE high cells [3] = test: Experimental metastasis model of myeloma, roneparstat in vivo combination with bortezomib; set-up: species or system Mouse, CB. 17/Icr SCID; settings: roneparstat 120 mg/kg/day s.c., bortezomib 0.5 mg/kg/twice a week i.p., two weeks, serum Day 21
diabetic nephropathy = settings: mouse models of diabetic nephropathy; cited from earlier work
CAG HPSE high cells [4] = format: in vivo, Mouse, CB. 17/Icr SCID
HPSE-high cells = test: Cell viability by MTT assay, roneparstat with carfilzomib; format: cell-based, human; settings: roneparstat 6.75 μM or carfilzomib 15 nM alone
From the text: CAG human myeloma cell line was established at the Myeloma Institute for Research and Therapy (Little Rock, Ark.). CAG cells with modified levels of heparanase expression have been extensively characterized and include (a) heparanase-low (HPSE-low) cells prepared by transfection with empty vector; and (b) heparanase-high (HPSE-high) cells prepared by transfection with vector containing the cDNA for human heparanase. Although HPSE-high cells express a 4-fold higher level of heparanase than do the HPSE-low cells, the elevated levels of enzyme activity present in HPSE-high cells are in the same range as that present in the bone marrow of many myeloma patients (Kelly T. et al, Cancer Res 2003; 63:8749-56). […] The preparation of the CAG-HPSE high cells is described in Yang Y, et al, The Journal Of Biological Chemistry, Vol. 282, No. 18, pp. 13326-13333, May 4, 2007 (see in particular page 13327, left column, the paragraph beginning with “For transfections . . . ”).
HPSE-high cells were seeded in serum free media overnight and then treated with 6.75 μM roneparstat (Rone) for 6 hours, washed and then treated with carfilzomib (CFZ) (15 nM) for 14 hours and viability was assessed by MTT assay. The MTT assay is a colorimetric assay for assessing cell viability, which takes its name from tetrazolium dye MTT (3-(4,5-dimethylthiazol-2-yl)-2,5-diphenyltetrazolium bromide). […]

CAG HPSE high cells [5] = format: in vivo, Mouse, CB. 17/Icr SCID; remark: listed apart in the source
multiple myeloma = settings: high-dose 200 mg/m^2 followed by ASCT after VAD induction, patients younger than 65 years; cited from earlier work
[6] = tested on: solid and hematologic tumor cells; settings: cited from earlier work
proteasome = settings: in animals; cited from earlier work
[7] = tested on: models of multiple myeloma, hematologic, and solid tumors; settings: cited from earlier work
[8] = roneparstat 60 mg/kg/day s.c., melphalan 1 mg/kg/week i.p., two weeks, serum Day 21

CC(C)C[C@H](NC(=O)[C@H](Cc1ccccc1)NC(=O)c1cnccn1)B(O)O [Bortezomib]
tumor growth in vivo [1]: causes a delay in tumor growth | cytotoxicity in vitro [2]: cytotoxic | % of animals with kappa levels (above detection limit) (CAG HPSE high cells [3]): 75% | animals with detectable levels of human immunoglobulin light chain (detectable tumor burden) (CAG HPSE high cells [3]): 8/10

Roneparstat
extent of albuminuria and renal damage (diabetic nephropathy): markedly decreased | animals with detectable tumor burden (CAG HPSE high cells [4]; mouse, in vivo): 3/10 | decrease of viability (MTT), agent administered alone (HPSE-high cells): neither roneparstat or carfilzomib provided significant results | % of animals with kappa levels (above detection limit) (CAG HPSE high cells [5]; mouse, in vivo): 89% | animals with detectable levels of human immunoglobulin light chain (detectable tumor burden) (CAG HPSE high cells [5]; mouse, in vivo): 8/9 | % of animals with kappa levels (above detection limit) (CAG HPSE high cells [3]): 70% | animals with detectable levels of human immunoglobulin light chain (detectable tumor burden) (CAG HPSE high cells [3]): 6/8

N[C@@H](Cc1ccc(N(CCCl)CCCl)cc1)C(=O)O [Melphalan]
survival (multiple myeloma): 5 years | animals with detectable tumor burden (CAG HPSE high cells [4]; after initial melphalan treatment, PBS for the next two weeks): 7/11 | % of animals with kappa levels (above detection limit) (CAG HPSE high cells [5]; [8]): 70% | animals with detectable levels of human immunoglobulin light chain (detectable tumor burden) (CAG HPSE high cells [5]; [8]): 7/10

CC(C)C[C@H](NC(=O)[C@H](CCc1ccccc1)NC(=O)CN1CCOCC1)C(=O)N[C@@H](Cc1ccccc1)C(=O)N[C@@H](CC(C)C)C(=O)[C@@]1(C)CO1 [Carfilzomib, (2S)—N—((S)-1-((S)-4-methyl-1-((R)-2-methyloxiran2-yl)-1-oxopentan-2-ylcarbamoyl)-2-phenylethyl)-2-((S)-2-(2-morpholinoacetamido)4-phenylbutanamido)-4-methylpentanamide]
antiproliferative and proapoptotic activities in vitro [6]: had antiproliferative and proapoptotic activities | proteasome activity in blood and tissue (proteasome): inhibited proteasome activity | tumor growth [7]: delayed tumor growth | decrease of viability (MTT), agent administered alone (HPSE-high cells): neither roneparstat or carfilzomib provided significant results
